Measurements as given in article PMC11597387 (Molecules, 2024).
Where “and” joins values, the source holds several entries; their conditions need not be identical. Identical values can stand only once. Like-named read-outs stand apart in the source and are kept apart here.

Assays:
[1] = pKa determination by UV/vis spectrometric method; type: physicochemical; settings: buffers I = 0.1 M, 1% methanol
From the text: For the successful determination of pKa values using the UV/vis spectrometric method, the UV/vis absorbance of the sample must change as a function of ionization. […] For the other investigated compounds, the spectra and results of data analysis are presented in the Supporting Information (Figures S1–S3). […] At lower pH values, the molecules are neutral with an absorption maximum between 311 nm and 343 nm. At the highest pH value, only deprotonated species are present with two absorption maxima, one at a wavelength around 370 nm and the other around 305 nm. […] Data analysis for the determination of ionization constants by spectral analysis applied in this study is described by Tomsho et al. and Ríos Martínez and Dardonville.
The results of repeated measurements show satisfactory precision with scatter values less than or equal to 0.06 for all compounds [36].
Working solutions were prepared by 100-fold dilution of stock solutions with appropriate buffer solutions.
Chemicals used for preparation of buffers were sodium acetate (Alkaloid, Skopje, Macedonia), potassium dihydrogenphosphate (Lach-ner, Neratovice, Czech Republic), sodium hydrogencarbonate (Kemika, Zagreb, Croatia), and dipotassium hydrogenphosphate (Fisher Chemical, Loughborough, UK). Sodium hydroxide was supplied by Gram-mol (Zagreb, Croatia), and hydrochloric acid was supplied by VWR Chemicals (Leuven, Belgium). All chemicals used were of analytical grade and used as received. For the preparation of buffer solutions for spectrophotometric measurements, stock solutions of 0.1 M sodium acetate, 0.05 M potassium dihydrogen phosphate, 0.05 M sodium hydrogen carbonate, and 0.05 M dipotassium hydrogen phosphate were used. Sodium acetate/acetic acid buffer was used for pH range 3.5−5.0, KH2PO4/K2HPO4 for pH range 5.5–8.5, […] for pH range 9.0−11.0, and K2HPO4/K3PO4 for pH range 11.0−11.5. All buffer solutions were prepared with the same ionic strength (I = 0.1 M) by adding KCl (Lach-ner, Neratovice, Czech Republic).
The exact pH value of the prepared buffer solutions was measured with an S20 SevenEasy pH-meter (MettlerToledo, Greifenseea, Switzerland).
The data analysis was carried out in the entire specified range. However, due to high absorbance at short wavelengths and zero absorbance at wavelengths greater than 500 nm, spectra in the range from 250 nm to 500 nm are shown in the figures for a clearer presentation. […] Appropriate buffer solutions were used as a blank.
Data analysis included correction of the raw spectra (A(500 nm) = 0) and the calculation of the spectral difference, which were performed using Excel program. The spectral difference was determined between the spectra recorded at each pH and at the spectra recorded at the lowest pH. The wavelengths of maximum positive and negative deviations were determined from the spectral difference graph. The absolute values of the absorbance difference at the determined wavelengths were summed to obtain total absorbance difference. The dependence of the total absorbance difference on pH (spectral difference graph) gives a characteristic sigmoidal curve. […] (1) Total absorbace difference = STεHA−εA^−·10^(pH−pKa)/1+10^(pH−pKa) where [ST] is the total substance concentration, and εHA and εA^− represent the extinction coefficients of the acidic and basic form of the compound, respectively.
Measurements were performed using freshly prepared working solutions. For each resveratrol analogue and each pH, three consecutive measurements were made.

[2] = literature value, no reference given; cited from earlier work
[3] = mean of three determinations, read-out: pKa¯ ± Scatter Value
[4] = single determination (one of three)
[5] = single determination (one of three), read-out: pKa

## COc1ccc(/C=C/c2ccc(C)s2)c(O)c1 [Compound 6, (E)-5-Methoxy-2-(2-(5-methythiophen-2-yl)vinyl)phenol]
[1]; [3]
  pKa: 9.62
[1]; [4]
  pKa: 9.59 and 9.66
[1]; [5]
  pKa: 9.62

## Oc1cccc(/C=C/c2cccs2)c1 [Compound 3, (E)-3-(2-(Thiophen-2-yl)vinyl)phenol]
[1]; [3]
  pKa: 10.1
[1]; [4]
  pKa: 10.05
[1]; [5]
  pKa: 10.1

## Cc1ccc(/C=C/c2ccccc2O)s1 [Compound 5, (E)-2-(2-(5-Methylthiophen-2-yl)vinyl)phenol]
[1]; [3]
  pKa: 9.4
[1]; [4]
  pKa: 9.36
[1]; [5]
  pKa: 9.45

## Oc1ccccc1/C=C/c1cccs1 [Compound 2, (E)-2-(2-(Thiophen-2-yl)vinyl)phenol]
[1]; [3]
  pKa: 9.88 ± 0.04
[1]; [4]
  pKa: 9.86 and 9.92
[1]; [5]
  pKa: 9.85

## COc1cccc(O)c1 [meta-methoxyphenol]
[2]
  experimental pKa^exp: 9.6

## COc1ccc(/C=C/c2cccs2)c(O)c1 [Compound 4, (E)-5-Methoxy-2-(2-(thiophen-2-yl)vinyl)phenol]
[1]; [3]
  pKa: 9.17 ± 0.06
[1]; [4]
  pKa: 9.21 and 9.11
[1]; [5]
  pKa: 9.19
